Reference: patent US12275731B2, “Azaindole inhibitors of wild-type and mutant forms of LRRK2” (DANA-FARBER CANCER INSTITUTE, INC., priority 2018, dated 2025)

Tests used:
Test in all cases: KinomeScan profiling
Format in all cases: binding
TAOK1 = molecular target: T1, TAOK1 (Homo sapiens, UniProt Q7L7X3); conditions: TAOK1, 1 μM; read-out: % control
T1 construct: purchased KinomeScan® (panel service)
T1 sequence (Q7L7X3 1-1001): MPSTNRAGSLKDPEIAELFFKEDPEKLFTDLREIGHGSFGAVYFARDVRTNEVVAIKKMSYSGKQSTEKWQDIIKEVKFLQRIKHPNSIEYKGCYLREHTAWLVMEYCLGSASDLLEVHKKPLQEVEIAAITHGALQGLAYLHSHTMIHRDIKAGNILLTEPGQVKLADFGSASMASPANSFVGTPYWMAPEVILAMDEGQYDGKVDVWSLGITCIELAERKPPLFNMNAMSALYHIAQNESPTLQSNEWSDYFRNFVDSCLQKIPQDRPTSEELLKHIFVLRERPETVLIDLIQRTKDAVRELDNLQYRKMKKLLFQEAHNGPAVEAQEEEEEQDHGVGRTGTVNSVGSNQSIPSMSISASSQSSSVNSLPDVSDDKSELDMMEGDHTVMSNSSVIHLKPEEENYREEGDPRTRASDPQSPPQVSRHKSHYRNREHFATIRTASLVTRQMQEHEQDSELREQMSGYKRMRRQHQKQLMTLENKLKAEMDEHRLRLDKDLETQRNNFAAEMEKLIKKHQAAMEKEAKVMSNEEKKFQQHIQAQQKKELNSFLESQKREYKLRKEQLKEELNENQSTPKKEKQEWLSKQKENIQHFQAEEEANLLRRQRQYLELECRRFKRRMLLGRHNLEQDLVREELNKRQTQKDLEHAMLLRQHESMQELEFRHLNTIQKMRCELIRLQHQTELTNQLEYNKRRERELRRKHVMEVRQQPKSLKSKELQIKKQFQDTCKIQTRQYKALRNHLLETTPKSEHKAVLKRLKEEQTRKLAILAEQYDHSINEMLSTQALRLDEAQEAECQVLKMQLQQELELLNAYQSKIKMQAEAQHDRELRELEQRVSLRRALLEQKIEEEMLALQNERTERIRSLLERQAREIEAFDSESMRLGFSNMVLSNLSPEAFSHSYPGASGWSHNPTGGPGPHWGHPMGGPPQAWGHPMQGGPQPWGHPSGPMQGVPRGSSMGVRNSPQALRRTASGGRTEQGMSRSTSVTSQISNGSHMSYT
Outline: (§1)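 Percent-of-control values derive from RLU, calculated as (test − positive)/(negative − positive) × 100, where DMSO defines 100% and a positive control compound defines 0%. Each compound was tested at 1 μM in the 468-kinase panel; sub-35% readings indicate activity.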

PDPK1 = molecular target: T2, PDPK1 (Homo sapiens, UniProt O15530); conditions: PDPK1, 1 μM; read-out: % control
T2 sequence (O15530 1-556): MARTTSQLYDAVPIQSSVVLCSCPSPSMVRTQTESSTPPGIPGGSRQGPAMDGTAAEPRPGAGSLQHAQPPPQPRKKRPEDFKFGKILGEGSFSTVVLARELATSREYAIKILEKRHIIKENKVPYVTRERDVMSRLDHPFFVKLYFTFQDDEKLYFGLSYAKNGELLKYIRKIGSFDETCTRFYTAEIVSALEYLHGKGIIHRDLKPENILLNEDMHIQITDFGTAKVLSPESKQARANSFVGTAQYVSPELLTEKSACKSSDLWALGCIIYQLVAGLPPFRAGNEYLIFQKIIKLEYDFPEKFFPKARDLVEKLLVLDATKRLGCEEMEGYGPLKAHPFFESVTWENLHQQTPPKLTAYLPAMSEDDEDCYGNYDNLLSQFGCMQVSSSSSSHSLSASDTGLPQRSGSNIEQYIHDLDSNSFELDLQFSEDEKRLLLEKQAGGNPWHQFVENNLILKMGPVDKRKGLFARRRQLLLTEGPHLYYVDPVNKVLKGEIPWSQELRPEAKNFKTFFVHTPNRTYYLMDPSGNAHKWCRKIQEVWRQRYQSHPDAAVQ
Outline: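 Test agents were profiled at a single concentration of 1 μM (DMSO vehicle) on a near-complete set of 468 kinases. Signal is reported relative to vehicle (100%) and a fully displacing control (0%).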

ABL1-nonphosphorylated = molecular target: T3, ABL1-nonphosphorylated (Homo sapiens, UniProt P00519); conditions: read-out: % control
T3 construct: purchased KinomeScan®
T3 sequence (P00519 whole entry): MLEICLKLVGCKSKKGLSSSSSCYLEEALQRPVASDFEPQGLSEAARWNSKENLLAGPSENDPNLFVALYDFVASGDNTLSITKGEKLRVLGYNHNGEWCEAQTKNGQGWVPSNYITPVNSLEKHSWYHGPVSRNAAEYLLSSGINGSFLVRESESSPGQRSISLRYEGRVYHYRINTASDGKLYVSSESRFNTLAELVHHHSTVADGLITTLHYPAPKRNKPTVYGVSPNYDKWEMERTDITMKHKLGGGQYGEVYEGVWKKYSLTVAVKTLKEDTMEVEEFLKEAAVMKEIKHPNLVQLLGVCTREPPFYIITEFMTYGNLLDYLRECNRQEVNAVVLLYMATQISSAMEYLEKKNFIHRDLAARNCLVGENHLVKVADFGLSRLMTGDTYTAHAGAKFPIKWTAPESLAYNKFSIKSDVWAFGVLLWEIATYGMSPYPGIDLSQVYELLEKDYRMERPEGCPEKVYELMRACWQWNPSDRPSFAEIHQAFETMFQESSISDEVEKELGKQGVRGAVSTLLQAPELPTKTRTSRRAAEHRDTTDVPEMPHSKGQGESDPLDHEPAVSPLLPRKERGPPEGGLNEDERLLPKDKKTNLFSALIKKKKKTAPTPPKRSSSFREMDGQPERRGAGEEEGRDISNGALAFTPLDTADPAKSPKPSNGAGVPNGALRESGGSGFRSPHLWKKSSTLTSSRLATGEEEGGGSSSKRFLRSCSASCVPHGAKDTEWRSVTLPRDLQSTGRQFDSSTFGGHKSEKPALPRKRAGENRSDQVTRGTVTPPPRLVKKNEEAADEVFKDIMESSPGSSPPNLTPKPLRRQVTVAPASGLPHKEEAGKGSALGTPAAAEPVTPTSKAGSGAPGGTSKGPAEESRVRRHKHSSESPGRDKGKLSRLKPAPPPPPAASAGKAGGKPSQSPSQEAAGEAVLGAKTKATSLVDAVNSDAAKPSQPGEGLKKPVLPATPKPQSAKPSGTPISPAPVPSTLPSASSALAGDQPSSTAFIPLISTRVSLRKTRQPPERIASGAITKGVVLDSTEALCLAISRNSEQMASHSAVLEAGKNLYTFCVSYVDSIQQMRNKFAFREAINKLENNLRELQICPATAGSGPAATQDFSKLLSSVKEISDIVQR
Outline: as §1

ERBB2 = ERBB2 (Homo sapiens, UniProt P04626); conditions: ERBB2, 1 μM; read-out: % control
ERBB2, sequence (P04626 23-1255): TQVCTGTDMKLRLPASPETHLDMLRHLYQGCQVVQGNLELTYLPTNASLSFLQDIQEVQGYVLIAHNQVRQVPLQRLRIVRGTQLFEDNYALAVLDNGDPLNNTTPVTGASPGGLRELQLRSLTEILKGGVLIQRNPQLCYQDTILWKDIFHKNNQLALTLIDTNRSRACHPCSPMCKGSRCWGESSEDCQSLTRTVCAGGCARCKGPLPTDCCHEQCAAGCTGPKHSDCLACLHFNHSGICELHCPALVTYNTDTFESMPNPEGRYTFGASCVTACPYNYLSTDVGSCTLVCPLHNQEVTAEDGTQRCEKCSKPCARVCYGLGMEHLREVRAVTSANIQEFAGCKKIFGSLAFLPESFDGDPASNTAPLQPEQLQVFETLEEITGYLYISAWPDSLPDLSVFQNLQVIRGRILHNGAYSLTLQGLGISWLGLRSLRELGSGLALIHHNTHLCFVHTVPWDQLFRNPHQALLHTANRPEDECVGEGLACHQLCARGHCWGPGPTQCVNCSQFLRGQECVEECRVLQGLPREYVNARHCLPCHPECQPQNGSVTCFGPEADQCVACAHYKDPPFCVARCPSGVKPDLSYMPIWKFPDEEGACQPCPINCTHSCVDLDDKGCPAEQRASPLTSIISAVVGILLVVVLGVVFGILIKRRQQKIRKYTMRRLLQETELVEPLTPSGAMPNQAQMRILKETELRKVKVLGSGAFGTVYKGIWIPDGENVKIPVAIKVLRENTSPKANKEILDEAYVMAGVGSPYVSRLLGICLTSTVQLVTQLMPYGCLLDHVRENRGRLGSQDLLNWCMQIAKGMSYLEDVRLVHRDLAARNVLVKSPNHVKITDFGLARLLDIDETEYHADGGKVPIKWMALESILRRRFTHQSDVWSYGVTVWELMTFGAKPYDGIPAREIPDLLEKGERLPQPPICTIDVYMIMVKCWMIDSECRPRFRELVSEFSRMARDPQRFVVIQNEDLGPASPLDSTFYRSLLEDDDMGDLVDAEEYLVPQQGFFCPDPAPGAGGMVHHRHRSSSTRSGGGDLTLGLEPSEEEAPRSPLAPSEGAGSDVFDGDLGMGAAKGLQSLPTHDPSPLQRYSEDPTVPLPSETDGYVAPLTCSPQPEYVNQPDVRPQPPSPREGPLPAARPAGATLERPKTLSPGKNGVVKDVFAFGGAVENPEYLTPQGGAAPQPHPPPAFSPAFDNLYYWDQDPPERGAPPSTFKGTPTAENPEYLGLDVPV
Outline: as §1

[1] = molecular target: T4, ABL1(F317L)-phosphorylated (Homo sapiens, UniProt P00519, F317L); conditions: read-out: % control
T4 construct: purchased KinomeScan®
T4 sequence (P00519 whole entry F317L): as the sequence (P00519 whole entry) above, with F317L counted along it
Outline: as §1

ACVR1 = molecular target: T5, ACVR1 (Homo sapiens, UniProt Q04771); conditions: ACVR1, 1 μM; read-out: % control
T5 construct: purchased KinomeScan®
T5 sequence (Q04771 21-509): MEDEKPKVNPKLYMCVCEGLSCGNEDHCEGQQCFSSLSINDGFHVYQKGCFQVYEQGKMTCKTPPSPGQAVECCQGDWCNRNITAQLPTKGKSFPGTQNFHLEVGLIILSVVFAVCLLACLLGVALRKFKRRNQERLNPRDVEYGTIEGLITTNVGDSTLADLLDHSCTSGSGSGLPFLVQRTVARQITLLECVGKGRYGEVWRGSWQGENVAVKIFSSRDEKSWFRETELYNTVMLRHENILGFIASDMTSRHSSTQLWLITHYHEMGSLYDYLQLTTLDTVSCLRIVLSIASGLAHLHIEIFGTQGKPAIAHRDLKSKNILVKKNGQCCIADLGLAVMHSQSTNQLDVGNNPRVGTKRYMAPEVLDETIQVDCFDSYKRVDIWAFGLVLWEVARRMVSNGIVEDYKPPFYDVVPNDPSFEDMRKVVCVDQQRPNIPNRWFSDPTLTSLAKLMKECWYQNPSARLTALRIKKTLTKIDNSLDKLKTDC
Outline: as §1

FGR = FGR (Homo sapiens, UniProt P09769); conditions: read-out: % control
FGR, sequence (P09769 whole entry): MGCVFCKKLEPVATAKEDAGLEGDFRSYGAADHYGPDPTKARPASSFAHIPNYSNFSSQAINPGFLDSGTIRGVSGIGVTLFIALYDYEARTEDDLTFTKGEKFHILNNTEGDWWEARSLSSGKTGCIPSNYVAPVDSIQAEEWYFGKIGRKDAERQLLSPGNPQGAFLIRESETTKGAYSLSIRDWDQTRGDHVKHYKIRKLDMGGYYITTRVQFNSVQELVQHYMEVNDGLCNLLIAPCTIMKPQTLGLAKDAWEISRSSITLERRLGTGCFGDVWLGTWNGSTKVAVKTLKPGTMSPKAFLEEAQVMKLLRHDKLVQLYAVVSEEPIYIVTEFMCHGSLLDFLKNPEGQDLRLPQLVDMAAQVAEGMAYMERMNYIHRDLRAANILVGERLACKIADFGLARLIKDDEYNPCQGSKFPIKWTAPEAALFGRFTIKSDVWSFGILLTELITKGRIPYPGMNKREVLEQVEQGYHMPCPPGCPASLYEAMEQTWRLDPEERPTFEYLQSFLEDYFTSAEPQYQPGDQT
Outline: as §1

Structure (SMILES) | remaining binding at 1 µM (TAOK1) | remaining binding at 1 µM (PDPK1) | remaining binding at 1 µM (ABL1-nonphosphorylated) | remaining binding at 1 µM (ERBB2) | remaining binding at 1 µM [1] | remaining binding at 1 µM (ACVR1) | remaining binding at 1 µM (FGR)
CNc1c(-c2ccc(C(=O)N3CCC(N4CCOCC4)CC3)cc2)cnc2[nH]cc(Cl)c12 [Compound 96, (4-(3-chloro-4-(methylamino)-1H-pyrrolo[2,3-b]pyridin-5-yl)phenyl)(4-morpholinopiperidin-1-yl)methanone] | 96% | 68% | 63% | 80% | 81% | 81% | 95%
O=C(c1ccc(-c2cnc3[nH]cc(Cl)c3c2NC2CCCC2)cc1)N1CCC(N2CCOCC2)CC1 [Compound 101, (4-(3-chloro-4-(cyclopentylamino)-1H-pyrrolo[2,3-b]pyridin-5-yl)phenyl)(4-morpholinopiperidin-1-yl)methanone] | 99% | 94% | 98% | 92% | 43% | 100% | 94%
CNc1c(-c2cnn([C@H]3CCN(C(C)=O)C[C@@H]3F)c2)cnc2[nH]cc(Cl)c12 [Compound 77, 1-((3S,4S)-4-(4-(3-chloro-4-(methylamino)-1H-pyrrolo[2,3-b]pyridin-5-yl)-1H-pyrazol-1-yl)-3-fluoropiperidin-1-yl)ethan-1-one] | 100% | 94% | 54% | 63% | 91% | 100% | 80%
